Where a name gives a salt, the structure may show the parent alone.
Biological target: T1, human NTCP (Homo sapiens, UniProt Q14973)
T1 sequence (Q14973 1-349): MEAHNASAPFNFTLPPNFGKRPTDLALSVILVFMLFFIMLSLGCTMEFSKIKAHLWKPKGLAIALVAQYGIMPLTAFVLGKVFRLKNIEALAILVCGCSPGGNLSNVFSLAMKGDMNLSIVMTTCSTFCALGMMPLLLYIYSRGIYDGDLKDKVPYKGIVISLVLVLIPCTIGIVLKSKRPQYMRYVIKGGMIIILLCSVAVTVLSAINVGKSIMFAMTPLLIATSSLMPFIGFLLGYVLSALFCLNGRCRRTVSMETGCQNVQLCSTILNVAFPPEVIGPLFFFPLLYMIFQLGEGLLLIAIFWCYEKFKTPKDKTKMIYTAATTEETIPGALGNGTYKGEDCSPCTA
Assay: Screening taurocholate uptake assay (96-well, [14C]taurocholate, 10 µM drug)
Conditions: for B-score functional assay: 10 µM drug

[1] = ranking over the functional and the binding screening assay
[2] = combined ranking of functional and binding screening assays
[3] = screening taurocholate uptake, B-score

Compound	Ranking score [1]	B-score functional assay (screening taurocholate uptake)	Ranking score [2]	also measured
Cc1cc(C(C#N)c2ccc(Cl)cc2)c(Cl)cc1NC(=O)c1cc(I)cc(I)c1O (stereo not drawn) [Closantel]	203.568	-0.508		
C[C@]1(Cn2ccnn2)[C@H](C(=O)O)N2C(=O)C[C@H]2S1(=O)=O [Tazobactam]		2.889	613.948	
COc1ccc(OC)c(C(O)C(C)N)c1 (stereo not drawn) [Methoxamine hydrochloride]		-0.662	647.236	
OCCOCCN1CCN(C2=Nc3ccccc3Sc3ccccc32)CC1 [Quetiapine hemifumarate]		-0.346	473.772	
COc1ccc(CCN2CCC(Nc3nc4ccccc4n3Cc3ccc(F)cc3)CC2)cc1 [Astemizole]	231.853	-0.026		
CC(C)(C)C(=O)OCOC(=O)[C@@H]1N2C(=O)[C@@H](NC(=O)[C@H](N)c3ccccc3)[C@H]2SC1(C)C [Pivampicillin]	199.66	2.096		
COCC1=C(C(=O)OC(C)OC(=O)OC(C)C)N2C(=O)[C@@H](NC(=O)/C(=N\OC)c3csc(N)n3)[C@H]2SC1 (stereo partly drawn) [Cefpodoxime proxetil]		-0.201	640.176	
OCCN1CCN(CCCN2c3ccccc3Sc3ccc(Cl)cc32)CC1 [Perphenazine]	88.5268	-0.257		
CNCCCN1c2ccccc2CCc2ccccc21 [Desipramine hydrochloride]				B-score functional assay (Prestwick library screen, taurocholate uptake): 0.022; Ranking score (ranking score beside the functional and binding assay B-scores of the screen): 719.8
CCN(CC)CCOC(=O)C(c1ccccc1)C1CCCCC1 (stereo not drawn) [Drofenine hydrochloride]		-0.177	532.5	
CN1C[C@H](CNC(=O)OCc2ccccc2)C[C@@H]2c3cccc4c3c(cn4C)C[C@H]21 [Metergoline]	269.388	-0.571		
CCCCOc1ccc(C(=O)CCN2CCCCC2)cc1 [Dyclonine hydrochloride]		-0.08	591.312	
CCOc1cc(CC(=O)N[C@@H](CC(C)C)c2ccccc2N2CCCCC2)ccc1C(=O)O [Repaglinide]	233.103	-2.984		
CC(=O)Oc1ccc(C(c2ccc(OC(C)=O)cc2)c2ccccn2)cc1 [Bisacodyl]	63	-3.114		
NC(=O)OCC(COC(N)=O)c1ccccc1 [Felbamate]		0.213	558.78	
CN(C)CCn1nnnc1SCC1=C(C(=O)O)N2C(=O)[C@@H](NC(=O)Cc3csc(N)n3)[C@H]2SC1 [Cefotiam hydrochloride]	197.995	1.511		
CC1(C)S[C@@H]2[C@H](NC(=O)[C@H](C(=O)O)c3ccsc3)C(=O)N2[C@H]1C(=O)O [Ticarcillin sodium]	110.132	-0.726		
CC(O)(CS(=O)(=O)c1ccc(F)cc1)C(=O)Nc1ccc(C#N)c(C(F)(F)F)c1 (stereo not drawn) [Bicalutamide]	258.616	-0.361		
CCC1(c2cccc(O)c2)CCCCN(C)C1 (stereo not drawn) [Meptazinol hydrochloride]		-1.3	474.66	
CCCC(C(=O)OCCN(CC)CC)(c1ccccc1)c1ccccc1 [Proadifen hydrochloride]		-1.354	468.828	
C[C@H](Cc1cc2c(c(C(N)=O)c1)N(CCCO)CC2)NCCOc1ccccc1OCC(F)(F)F [Silodosin]		1.072	510.413	
CC(C)c1c(C(=O)Nc2ccccc2)c(-c2ccccc2)c(-c2ccc(F)cc2)n1CC[C@@H](O)C[C@@H](O)CC(=O)O [Atorvastatin]	231.469	-2.669		
CCN(CC)C(=S)SSC(=S)N(CC)CC [Disulfiram]	82.3772	-4.037		
CN(C(=O)CN(CCO)CC(=O)N(C)C(C)(C)Cc1ccccc1)C(C)(C)Cc1ccccc1 [Oxethazaine]		0.282	642.638	
O=C(O)CCC(=O)Nc1ccc(S(=O)(=O)Nc2nccs2)cc1 [Succinylsulfathiazole]	258.147	-0.075		
CC(C)NNC(=O)c1ccncc1.O=P(O)(O)O [Iproniazide phosphate]		0.714	542.692	
CC(C)C[C@H](NC(=O)[C@@H](O)[C@H](N)Cc1ccccc1)C(=O)O [Ubenimex]		0.218	608.5	

Compound	Ranking score [1]	B-score functional assay (screening taurocholate uptake)	Ranking score [2]	also measured
O=C(COc1ccc(Cl)cc1)N1CCN(Cc2ccc3c(c2)OCO3)CC1 [Fipexide hydrochloride]	172.884	-2.118		
CC[C@H](C)[C@H]1O[C@]2(CC[C@@H]1C)C[C@@H]1C[C@@H](C/C=C(\C)[C@@H](O[C@H]3C[C@H](OC)[C@@H](O[C@H]4C[C@H](OC)[C@@H](O)[C@H](C)O4)[C@H](C)O3)[C@@H](C)/C=C/C=C3\CO[C@@H]4[C@H](O)C(C)=C[C@@H](C(=O)O1)[C@]34O)O2 [Ivermectin]	56.4978	-2.693		
Nc1ccc(S(=O)(=O)Nc2ccc(Cl)nn2)cc1 [Sulfachloropyridazine]		0.615	530.669	
CC(=O)[C@@]1(O)CC[C@H]2[C@@H]3C[C@H](C)C4=CC(=O)C=C[C@]4(C)[C@@]3(F)[C@@H](O)C[C@@]21C [Fluorometholone]		-0.26	616.409	
c1ccc(-c2ccc(C(c3ccccc3)n3ccnc3)cc2)cc1 (stereo not drawn) [Bifonazole]	164.499	-2.294		
O=C1c2cccc(O)c2C(=O)c2c(O)cccc21 [1,8-Dihydroxyanthraquinone]			1173.42	B-score functional assay [3]: 1.277
O=C1c2c(O)cccc2Cc2cccc(O)c21 [Anthralin]	68.2788	0.019		
NCCc1c[nH]cn1 [Histamine dihydrochloride]		0.779	536.125	
CNCC(O)c1ccc(OC(=O)C(C)(C)C)c(OC(=O)C(C)(C)C)c1 (stereo not drawn) [Dipivefrin hydrochloride]			1200.98	B-score functional assay [3]: 1.926
O=S(=O)(O)CCS [Mesna]	127.75	-1.329		
O=C1c2ccccc2C(=O)C1c1ccccc1 [Phenindione]		1.774	569.166	
C[C@]12CC[C@H]3C(=CCc4cc(O)ccc43)[C@@H]1CCC2=O [Equilin]	264.641	-2.643		
O=C(O)c1cc(-c2ccc(F)cc2F)ccc1O [Diflunisal]	134.198	-4.496		
[H]/N=C(/N)N/C(=N/[H])NCCc1ccccc1 [Phenformin hydrochloride]	172.511	0.533		
Cc1cc(=O)n(-c2ccccc2)n1C [Antipyrine]	172.864	-1.958		
O=C(OCCOCCO)c1ccccc1Nc1cccc(C(F)(F)F)c1 [Etofenamate]	165.439	1.885		
Nc1ccccc1S(N)(=O)=O [2-Aminobenzenesulfonamide]		-0.592	626.378	
C/C=C(\C)C(=O)O[C@H]1[C@H](OC(C)=O)[C@@]2(CO)C(CC1(C)C)C1=CC[C@@H]3[C@@]4(C)CC[C@H](O[C@@H]5O[C@H](C(=O)O)[C@@H](O[C@@H]6O[C@H](CO)[C@@H](O)[C@H](O)[C@H]6O)[C@H](O)[C@H]5O[C@@H]5O[C@H](CO)[C@@H](O)[C@H](O)[C@H]5O)[C@H](CO)C4CC[C@@]3(C)[C@@]1(C)C[C@H]2O (stereo partly drawn) [Beta-Escin]	8.485	-8.059		
COc1ccc2c(c1)c(CC(=O)O)c(C)n2C(=O)c1ccc(Cl)cc1 [Indomethacin]	264.174	-1.11		
NNc1nncc2ccccc12 [Hydralazine hydrochloride]		-0.84	587.239	
CCCCC1(COC(=O)CCC(=O)O)C(=O)N(c2ccccc2)N(c2ccccc2)C1=O [Suxibuzone]			1138	B-score functional assay [3]: 1.433
CCN(CC)C(=O)c1ccc(O)c(OC)c1 [Ethamivan]		-1.181	538.826	
CCCC(=O)Nc1ncnc2c1ncn2[C@@H]1O[C@@H]2COP(=O)([O-])O[C@H]2[C@H]1OC(=O)CCC.[Na+] [Bucladesine sodium salt]		-0.403	477.022	
CC(=O)CCCCn1c(=O)c2c(ncn2C)n(C)c1=O [Pentoxifylline]		-0.027	582.174	
C[C@]12C/C(=C/O)C(=O)C[C@@H]1CC[C@@H]1[C@@H]2CC[C@@]2(C)[C@H]1CC[C@]2(C)O [Oxymetholone]		-1.45	467.145	
C[N+](C)(C)CCOC(N)=O [Carbachol]		0.619	511.9	
C[C@H](CCC(=O)O)[C@H]1CC[C@H]2[C@@H]3CC[C@@H]4C[C@H](O)CC[C@]4(C)[C@H]3CC[C@]12C [Lithocholic acid]	22.4499	-6.112		

Reference: publication PMC5681660, “Reduced hepatitis B and D viral entry using clinically applied drugs as novel inhibitors of the bile acid transporter NTCP” (Scientific Reports, 2017)
